The text below walks through data of PMC10510756 (Chemical Science, 2023).

A word on the KD: it is the constant that tells how readily two partners part at equilibrium. A low value points to a tighter complex. A word on the Km: it is the substrate concentration at which the rate is half of its maximum.

Assay [1] has as its system PreQ1 RS (RNA, riboswitch) GGAGAGGUUCUAGCUACACCUCUAUAAAAAACUAA
The experiment in a line: MST, SybrGold (1x) non-covalent dye. The conditions noted are these: 100 mM KCl, 25 mM MgCl2; 50 mM Tris-HCl pH 7.5, 25 °C, 100 nM RNA; apparent; near tight-binding limit.

Assay [2] deals with Cy5-SAM-VI RS (RNA, riboswitch) GGCAUUGUGCCUCGCAUUGCACUCCGCGGGGCGAUAAGUCCUGAAAAGGGAUGUC
The experiment in a line: MST, 5'-Cy5-labelled RNA. The conditions noted are these: 100 mM KCl, 25 mM MgCl2; 50 mM Tris-HCl pH 7.5, 25 °C, 20 nM RNA.

Assay [3] relates to SAM-VI RS (RNA, riboswitch) GGCAUUGUGCCUCGCAUUGCACUCCGCGGGGCGAUAAGUCCUGAAAAGGGAUGUC
In words: MST, SybrGold (1x) non-covalent dye. The settings on record: 100 mM KCl, 25 mM MgCl2; 50 mM Tris-HCl pH 7.5, 25 °C, 100 nM RNA.

The test system of assay [4] is SAM-I RS (RNA, riboswitch) GGCUUAUCAAGAGAGGGGGAGCGACUGGCGCGAAGAACCCCGGCAACCAGAAAUGGUGCCAAUUCCUGCAGCGGAAACGUUGAAAGAUGAGCCG
In words: MST, SybrGold (1x) non-covalent dye. The conditions noted are these: 100 mM KCl, 25 mM MgCl2; 50 mM Tris-HCl pH 7.5, 25 °C, 100 nM RNA.

For another assay, the target named is METTL3/14 (Homo sapiens, UniProt Q86U44).
Chain of METTL3/14 (Q86U44 2-580): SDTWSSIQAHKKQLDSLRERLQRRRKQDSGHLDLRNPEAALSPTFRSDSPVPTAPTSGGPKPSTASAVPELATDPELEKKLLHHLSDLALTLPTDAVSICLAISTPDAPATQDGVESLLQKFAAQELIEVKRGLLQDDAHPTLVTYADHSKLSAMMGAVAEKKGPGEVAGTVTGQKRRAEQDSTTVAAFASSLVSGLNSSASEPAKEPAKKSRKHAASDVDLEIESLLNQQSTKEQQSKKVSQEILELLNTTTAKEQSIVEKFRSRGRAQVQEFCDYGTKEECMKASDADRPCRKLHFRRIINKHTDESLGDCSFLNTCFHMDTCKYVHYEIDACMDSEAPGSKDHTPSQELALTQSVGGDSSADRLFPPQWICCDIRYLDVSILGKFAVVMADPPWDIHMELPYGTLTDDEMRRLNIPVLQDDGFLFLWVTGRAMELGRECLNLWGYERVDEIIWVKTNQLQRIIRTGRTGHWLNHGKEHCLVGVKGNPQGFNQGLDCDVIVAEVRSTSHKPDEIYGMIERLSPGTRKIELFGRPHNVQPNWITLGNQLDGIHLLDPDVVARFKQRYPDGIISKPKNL
Chain of METTL3/14 (Q9HCE5 whole entry partner): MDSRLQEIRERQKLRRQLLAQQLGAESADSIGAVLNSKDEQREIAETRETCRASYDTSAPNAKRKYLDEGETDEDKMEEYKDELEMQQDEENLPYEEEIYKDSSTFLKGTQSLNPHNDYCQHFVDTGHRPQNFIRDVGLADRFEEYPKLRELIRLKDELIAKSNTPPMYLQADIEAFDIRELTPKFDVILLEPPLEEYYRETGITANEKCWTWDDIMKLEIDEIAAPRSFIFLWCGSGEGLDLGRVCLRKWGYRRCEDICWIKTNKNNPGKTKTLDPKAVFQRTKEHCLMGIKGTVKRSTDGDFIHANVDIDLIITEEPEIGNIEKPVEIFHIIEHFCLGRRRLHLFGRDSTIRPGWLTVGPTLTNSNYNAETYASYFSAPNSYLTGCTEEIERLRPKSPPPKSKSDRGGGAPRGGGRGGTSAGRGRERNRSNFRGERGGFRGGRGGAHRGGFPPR
Assay [5] has as its system Neomycin aptamer (RNA, aptamer) GGCUGCUUGUCCUUUAAUGGUCCAGUC
The experiment in a line: MST, Syto 59 (1x) non-covalent dye. The conditions noted are these: 100 mM KCl, 25 mM MgCl2; 50 mM Tris-HCl pH 7.5, 25 °C, 100 nM RNA; apparent; below tight-binding limit.

Consider `NCc1c[nH]c2nc(N)[nH]c(=O)c12`, for which, in assay [1], the “KD,app” value came out at 44.8 nM.

Regarding `Nc1ncnc2c1ncn2[C@@H]1O[C@H](CSCC[C@H](N)C(=O)O)[C@@H](O)[C@H]1O`, the KD in assay [2] came out at 23600 ± 7000 nM; in assay [3], 10000 nM; in assay [4] it was 137000 nM. Regarding `C[S+](CC[C@H](N)C(=O)[O-])C[C@H]1O[C@@H](n2cnc3c(N)ncnc32)[C@H](O)[C@@H]1O` (stereo partly drawn) [S-adenosylmethionine], the Michaelis-Menten constant (Km) on METTL3/14 was 0.226 µM. On to `C[S+](CC[C@H](N)C(=O)O)C[C@H]1O[C@@H](n2cnc3c(N)ncnc32)[C@H](O)[C@@H]1O` (stereo partly drawn), for which the KD in assay [2] is 699 ± 185 nM; in assay [3], 953 nM; in assay [4], 157 nM. As to `NC[C@@H]1O[C@H](O[C@H]2[C@@H](O)[C@H](O[C@@H]3[C@@H](O)[C@H](N)C[C@H](N)[C@H]3O[C@H]3O[C@H](CN)[C@@H](O)[C@H](O)[C@H]3N)O[C@@H]2CO)[C@H](N)[C@@H](O)[C@@H]1O`, the “KD,app” value in assay [5] is on record as 29.6 nM.
